“And” between values parts separate entries of the source, which are not always exact repeats. Equal entries are not always repeated. Toxic doses and inconclusive results are not listed.
System: BDF1 mice, P388 leukemia ip, median survival T/C
Assay: NCI In Vivo Anticancer Drug Screen. Data for tumor model P388 Leukemia (intraperitoneal) in B6D2F1 (BDF1) mice
Conditions: endpoint: median survival time, higher = longer survival
Method in brief: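 Survival ratio, drug arm over vehicle arm, in mice with a transplanted tumour.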

[1] = dose: 6.0 mg/kg/injection, schedule: Q01DX009 (ip), vehicle: saline
[2] = dose: 100.0 mg/kg/injection, schedule: Q04DX003 (ip), vehicle: Klucel (hydroxypropylcellulose) (HPC)
[3] = dose: 200.0 mg/kg/injection, schedule: Q04DX003 (ip), vehicle: Klucel (hydroxypropylcellulose) (HPC)
[4] = dose: 400.0 mg/kg/injection, schedule: Q04DX003 (ip), vehicle: Klucel (hydroxypropylcellulose) (HPC)
[5] = dose: 100.0 mg/kg/injection, schedule: Q01DX001 (ip), vehicle: Klucel (hydroxypropylcellulose) (HPC)
[6] = dose: 200.0 mg/kg/injection, schedule: Q01DX001 (ip), vehicle: Klucel (hydroxypropylcellulose) (HPC)
[7] = dose: 12.5 mg/kg/injection, schedule: Q01DX009 (ip), vehicle: saline
[8] = dose: 25.0 mg/kg/injection, schedule: Q01DX009 (ip), vehicle: saline
[9] = dose: 6.25 mg/kg/injection, schedule: Q01DX009 (ip), vehicle: saline with Tween-80
[10] = dose: 12.5 mg/kg/injection, schedule: Q01DX009 (ip), vehicle: saline with Tween-80
[11] = dose: 25.0 mg/kg/injection, schedule: Q01DX009 (ip), vehicle: saline with Tween-80
[12] = dose: 50.0 mg/kg/injection, schedule: Q04DX003 (ip), vehicle: saline

`O=C(O)CCCc1ccc(N(CCCl)CCCl)cc1` was tested, and the T/C (dose: 0.25 mg/kg/injection, schedule: Q01DX009 (ip), vehicle: Klucel (hydroxypropylcellulose) (HPC)) was 123 % of control, the T/C (dose: 0.5 mg/kg/injection, schedule: Q01DX009 (ip), vehicle: Klucel (hydroxypropylcellulose) (HPC)) was 105 % of control and the T/C (dose: 1.5 mg/kg/injection, schedule: Q01DX009 (ip), vehicle: Klucel (hydroxypropylcellulose) (HPC)) was 171 % of control. The T/C (dose: 2.0 mg/kg/injection, schedule: Q01DX009 (ip), vehicle: Klucel (hydroxypropylcellulose) (HPC)) was 165 % of control, the T/C (dose: 3.0 mg/kg/injection, schedule: Q01DX009 (ip), vehicle: saline) was 99 % of control and 100 % of control and the T/C (dose: 3.13 mg/kg/injection, schedule: Q01DX010 (ip), vehicle: saline) was 100 % of control. The T/C [1] was 105 % of control, the T/C (dose: 12.0 mg/kg/injection, schedule: Q01DX009 (ip), vehicle: saline) was 122 % of control and the T/C (dose: 12.5 mg/kg/injection, schedule: Q01DX010 (ip), vehicle: saline) was 172 % of control. The T/C (dose: 24.0 mg/kg/injection, schedule: Q01DX009 (ip), vehicle: saline) was 88 % of control.

`CNC(=S)/N=C(\N)n1nc(C)cc1C` was tested, and the T/C (dose: 15.0 mg/kg/injection, schedule: Q01DX009 (ip), vehicle: saline with Tween-80) was 104 % of control, the T/C (dose: 30.0 mg/kg/injection, schedule: Q01DX009 (ip), vehicle: saline with Tween-80) was 112 % of control and the T/C (dose: 60.0 mg/kg/injection, schedule: Q01DX009 (ip), vehicle: saline with Tween-80) was 112 % of control.

With `CCCCC(C(=O)OCC)C(CCC1CCCCC1)(C(=O)OCC)C(=O)OCC` (stereo unspecified) the T/C [2] was 91 % of control, the T/C [3] was 87 % of control and the T/C [4] was 100 % of control.

In the case of `O=S(=O)(NCCO)c1ccc(Cl)cc1`, the T/C [5] is reported as 100 % of control, the T/C [6] is reported as 100 % of control and the T/C (dose: 400.0 mg/kg/injection, schedule: Q01DX001 (ip), vehicle: Klucel (hydroxypropylcellulose) (HPC)) is reported as 100 % of control.

With `O=C(c1ccc([N+](=O)[O-])cc1)C(Br)C(Br)c1ccncc1` (stereo unspecified) the T/C (dose: 50.0 mg/kg/injection, schedule: Q01DX001 (ip), vehicle: Klucel (hydroxypropylcellulose) (HPC)) was 105 % of control, the T/C [5] was 110 % of control and the T/C [2] was 113 % of control. For the same compound, the T/C [6] was 115 % of control, the T/C [3] was 113 % of control and the T/C [4] was 113 % of control.

`O=CCC(O)C(O)C(O)CO` (stereo unspecified) was tested, and the T/C (dose: 94.0 mg/kg/injection, schedule: Q01DX010 (ip), vehicle: saline) was 100 % of control, the T/C (dose: 188.0 mg/kg/injection, schedule: Q01DX010 (ip), vehicle: saline) was 100 % of control and the T/C (dose: 375.0 mg/kg/injection, schedule: Q01DX010 (ip), vehicle: saline) was 113 % of control. The T/C (dose: 750.0 mg/kg/injection, schedule: Q01DX010 (ip), vehicle: saline) was 100 % of control.

With `CCCSc1ccc([N+](=O)[O-])cc1` the T/C (dose: 200.0 mg/kg/injection, schedule: Q04DX002 (ip), vehicle: saline with Tween-80) was 93 % of control and the T/C (dose: 400.0 mg/kg/injection, schedule: Q04DX002 (ip), vehicle: saline with Tween-80) was 101 % of control.

`C/C(=N/N(C)C)c1ccc([N+](=O)[O-])cc1` was tested, and the T/C (dose: 6.25 mg/kg/injection, schedule: Q01DX009 (ip), vehicle: saline) was 87 % of control, the T/C [7] was 91 % of control and the T/C [8] was 100 % of control. For the same compound, the T/C (dose: 50.0 mg/kg/injection, schedule: Q01DX009 (ip), vehicle: Klucel (hydroxypropylcellulose) (HPC)) was 109 % of control.

With `Cc1ccc(NC(=O)N(CCCl)N=O)c(C)c1` the T/C [9] was 90 % of control, the T/C [10] was 159 % of control and the T/C [11] was 118 % of control.

`C=CCC#N` was tested, and the T/C [7] was 95 % of control, the T/C [8] was 95 % of control and the T/C (dose: 25.0 mg/kg/injection, schedule: Q04DX003 (ip), vehicle: saline) was 100 % of control. For the same compound, the T/C [12] was 95 % of control.

In the case of `O=c1ccccc(Br)c1O`, the T/C (dose: 25.0 mg/kg/injection, schedule: Q01DX001 (ip), vehicle: Klucel (hydroxypropylcellulose) (HPC)) is reported as 110 % of control and the T/C [5] is reported as 121 % of control.

With `COC(=O)c1ccc(=O)c2nc3/c(=C/O)c(O)cc(=O)c3[nH]c12` the T/C (dose: 12.5 micrograms/kg/injection, schedule: Q01DX009 (ip), vehicle: Klucel (hydroxypropylcellulose) (HPC)) was 101 % of control, the T/C (dose: 25.0 micrograms/kg/injection, schedule: Q01DX009 (ip), vehicle: Klucel (hydroxypropylcellulose) (HPC)) was 97 % of control and the T/C (dose: 50.0 micrograms/kg/injection, schedule: Q01DX009 (ip), vehicle: Klucel (hydroxypropylcellulose) (HPC)) was 97 % of control. For the same compound, the T/C (dose: 99.0 micrograms/kg/injection, schedule: Q01DX009 (ip), vehicle: saline) was 100 % of control, the T/C (dose: 150.0 micrograms/kg/injection, schedule: Q01DX009 (ip), vehicle: saline) was 109 % of control and the T/C (dose: 225.0 micrograms/kg/injection, schedule: Q01DX009 (ip), vehicle: saline) was 113 % of control.

For `CC1(C)N=C(N)N=C(N)N1c1ccc(CCCCc2ccc(S(=O)(=O)F)cc2)c(Cl)c1`, the T/C (dose: 0.75 mg/kg/injection, schedule: Q01DX009 (ip), vehicle: saline) was 160 % of control, the T/C (dose: 1.0 mg/kg/injection, schedule: Q01DX009 (ip), vehicle: saline) was 150 % of control and the T/C (dose: 1.5 mg/kg/injection, schedule: Q01DX009 (ip), vehicle: saline) was 151 % of control. For the same compound, the T/C (dose: 1.78 mg/kg/injection, schedule: Q01DX009 (ip), vehicle: saline) was 168 % of control, the T/C (dose: 2.25 mg/kg/injection, schedule: Q01DX009 (ip), vehicle: saline) was 174 % of control and the T/C (dose: 2.66 mg/kg/injection, schedule: Q01DX009 (ip), vehicle: saline) was 174 % of control. For the same compound, the T/C (dose: 4.0 mg/kg/injection, schedule: Q01DX009 (ip), vehicle: saline) was 157 % of control, the T/C (dose: 4.4 mg/kg/injection, schedule: Q01DX009 (ip), vehicle: saline) was 174 % of control and the T/C [1] was 158 % of control. The T/C (dose: 6.6 mg/kg/injection, schedule: Q01DX009 (ip), vehicle: saline) was 173 % of control, the T/C (dose: 10.0 mg/kg/injection, schedule: Q01DX009 (ip), vehicle: saline) was 201 % of control and the T/C (dose: 12.5 mg/kg/injection, schedule: Q04DX003 (ip), vehicle: saline) was 118 % of control. The T/C (dose: 15.0 mg/kg/injection, schedule: Q01DX009 (ip), vehicle: saline) was 204 % of control, the T/C (dose: 18.7 mg/kg/injection, schedule: Q01DX009 (ip), vehicle: saline) was 195 % of control and the T/C (dose: 37.5 mg/kg/injection, schedule: Q01DX009 (ip), vehicle: saline) was 245 % of control. For the same compound, the T/C [12] was 154 % of control and the T/C (dose: 75.0 mg/kg/injection, schedule: Q04DX003 (ip), vehicle: saline) was 150 % of control.

With `CCCCCCCCSc1ncnc2nc[nH]c12` the T/C (dose: 100.0 mg/kg/injection, schedule: Q01DX009 (ip), vehicle: saline with Tween-80) was 108 % of control, the T/C (dose: 100.0 mg/kg/injection, schedule: Q04DX003 (ip), vehicle: saline with Tween-80) was 100 % of control and the T/C (dose: 200.0 mg/kg/injection, schedule: Q01DX009 (ip), vehicle: saline with Tween-80) was 87 % of control. For the same compound, the T/C (dose: 200.0 mg/kg/injection, schedule: Q04DX003 (ip), vehicle: saline with Tween-80) was 100 % of control, the T/C (dose: 400.0 mg/kg/injection, schedule: Q01DX009 (ip), vehicle: saline with Tween-80) was 108 % of control and the T/C (dose: 400.0 mg/kg/injection, schedule: Q04DX003 (ip), vehicle: saline with Tween-80) was 100 % of control.

With `C[As](C)(=S)[As](C)(C)=S` the T/C [9] was 116 % of control, the T/C [10] was 114 % of control and the T/C [11] was 119 % of control.

For `O=C(CCCC(O)(C1CC1)C1CC1)C1CC1`, the T/C (dose: 100.0 mg/kg/injection, schedule: Q01DX009 (ip), vehicle: Klucel (hydroxypropylcellulose) (HPC)) was 100 % of control and the T/C (dose: 200.0 mg/kg/injection, schedule: Q01DX009 (ip), vehicle: Klucel (hydroxypropylcellulose) (HPC)) was 115 % of control.

For `CC(O)COCc1ccccc1` (stereo unspecified), the T/C (dose: 100.0 mg/kg/injection, schedule: Q04DX003 (ip), vehicle: saline) was 100 % of control, the T/C (dose: 200.0 mg/kg/injection, schedule: Q04DX003 (ip), vehicle: saline) was 87 % of control and the T/C (dose: 400.0 mg/kg/injection, schedule: Q04DX003 (ip), vehicle: saline) was 108 % of control.

Reference: PubChem BioAssay AID328 (DTP/NCI, 2004)
